# What was measured:
# pancreatic islet cells = experiment: insulin secretion of pancreatic islets isolated from mice, radioimmunoassay; type: cell-based, C57BL mouse
# Experimental: First step; After isolating pancreatic islets from a C57BL mouse according to Lacy and Kotianovsky(Diabetes, 16, 35-39, 1967), the islets were incubated for 60 min. at 37°C. with 250 […] of L-2-oxothiazolidine-4-carboxylic acid alone or together with 2.8-25 mM of glucose, and insulin from the supernatant was measured by radioimmunoassay,
# The isolation of pancreatic islets from a C57BL mouse(weight; 20 g, Samtako, Daejeon, Korea) was performed according to the method of Lacy and Kotianovsky et al.(Diabetes, 16; 35-39, 1967). The pancreas of ether-anesthetized mouse was distended by infusion with Hank's balanced salt solution(HBSS, GIBCO, USA) containing 1 mg/ml of collagenase (Sigma, USA) via common bile duct and isolated. The isolated pancreas was digested for 20 min at 37 C while stirring homogeneously. After removing acinar cells by washing with HBSS, pancreatic islets of similar size were collected under dissecting microscope. 2.8-25 mM of glucose(Sigma, USA) alone or together with 250 ^μM-[…] of L-2-oxothiazolidine-4-carboxylic acid were administered to the isolated 10 pancreatic islets in 100 ^μl of Krebs Ringer bicarbonate(Sigma, USA) buffer solution containing 10 mM of Hepes, the islets were incubated for 60 min. at 37 °C., and insulin in the supernatant, from which the pancreatic β-islet cells was removed, was measured. […]
# [1] = test system: type 2 diabetes mice (C57BL/KsJ-db/db Jcl); experiment: blood glucose levels after oral administration for 1-4 weeks (Example 4); type: in vivo, mouse; conditions: for duration of the blood glucose lowering effect: after glucose intake
# Experimental: The chemical L-2-oxothiazolidine-4-carboxylic acid was orally administered to diabetes mice(C57BL/KsJ-db/db Jcl) with a single dose of 3.0-400 mg/kg once in the state of empty stomach or 40-80 mg/kg twice a day for 1-4 weeks continuously.
# (§1) Seven week old type 2 diabetes mice were maintained as in EXAMPLE 2. 0.2 ml of PBS (pH 7.4) was given to a control group twice a day for 1-4 weeks, and 40-80 mg/kg of L-2-oxothiazolidine-4-carboxylic acid dissolved in 0.2 ml of PBS of which pH was adjusted to 7.4 with 3 N NaOH(Junsei, Japan) was orally administered to an experimental group.
# The results of blood glucose levels shown in FIG. 7 were obtained, after 40-80 mg/kg of L-2-oxothiazolidine-4-carboxylic acid was administered to type 2 diabetes mice twice a day for two weeks and after glucose was subsequently given, as described in […]
# [2] = body weight during four weeks of oral administration (Example 4); type: in vivo, mouse; conditions: 40-80 mg/kg orally for four weeks; measured at one, two and four week points
# Experimental: as §1
# [3] = test system: pancreatic islets of type 2 diabetes mice; experiment: morphological examination of pancreatic islets, hematoxylin-eosine and anti-insulin immunohistochemistry (Example 6); type: in vivo, mouse; conditions: 80 mg/kg for four weeks, 120 min after glucose 1 g/kg i.p.
# Experimental: Sixth step: Identifying the ability of insulin secretion of the control group and the type 2 diabetes mouse to which 80 mg/kg of L-2-oxothiazolidine-4-carboxylic acid for 4 weeks determined by immunohistochemical staining with anti-insulin antibody.
# L-2-oxothiazolidine-4-carboxylic acid or PBS alone was administered to 3 mice in each group, 1 g/kg of glucose was intraperitoneally injected in the fasted state, and they were sacrificed by cervical dislocation after 120 min. of the injection. Immediately, the abdominal region was incised, pancreases were then removed from the mice and fixed more than 12 hours in a cold solution of 4% paraformaldehyde in PBS(pH 7.4, Sigma, USA). Pancreas separated free of intestine and adipose tissue(fatty tissue), rinsed three times with fresh fixing solution, and the fixed tissues were processed routinely for paraffin embedding. The tissue sections were cut off at 5 ^μm interval using microtome(Sandon, Germany) from the paraffin embedding, and adhered to a slide coated with poly-L-lysine(Sigma, USA) for immunohistochemistry.
# To remove the paraffin from the slides on which pancreatic tissue was coated, the slides were repeatedly treated with xylene for 5 min., and the tissue sections were rehydrated with a series of 100-70% alcohol and incubated with PBS(pH 7.4) for 5 minutes. […]
# [4] = ED50 by linear regression method; type: in vivo; conditions: calculated by linear regression method; read-out: ED50 (50% of maximum effective dose)
# Excerpt: ED50 is defined as 50% of maximum effective dose calculated by linear regression method. The term “treat” refers to the ability of the compounds to either relieve, alleviate, or slow the progression of the patient's disease.
# mice = mice pre-treated with L-2-oxothiazolidine-4-carboxylic acid, acetaminophen 9.5 mmol/kg oral; cited from earlier work
# [5] = 40 mg/kg for one week, 60 min after glucose intake
# [6] = 40 mg/kg for two weeks, 60 min after glucose addition
# [7] = 40 mg/kg for two weeks, 120 min after glucose intake
# [8] = 80 mg/kg for four weeks, 120 min after glucose intake
# [9] = 80 mg/kg for four weeks, fasted state (13 hours)
# [10] = 80 mg/kg for one week, 60 min after glucose intake
# [11] = 80 mg/kg for one week, 120 min after glucose intake
# [12] = 80 mg/kg for one week, fasted state (13 hours)
# [13] = 80 mg/kg for two weeks, 60 min after glucose addition
# [14] = 80 mg/kg for two weeks, 120 min after glucose intake
smiles,measurement,setting,value
"O=C1NC(C(=O)O)CS1 [OTC, L-2-oxothiazolidine-4-carboxylic acid]",insulin secretion of pancreatic islet cells,"pancreatic islet cells; 500 μM−2 mM OTC in the presence of 17.5 mM glucose, 60 min at 37°C",increased insulin secretion in a dose-dependent manner
same,glucose dependence of the stimulation of insulin secretion from pancreatic islets,pancreatic islet cells; OTC 500 μM-2 mM,the presence of glucose is required for the stimulation of insulin secretion
same,blood glucose level,"[1]; 40 mg/kg for four weeks, 180 min after glucose intake",50.50 ± 44.21 mg/dL
same,blood glucose level,[1]; [5],507.50 ± 52.81 mg/dL
same,decrease of blood glucose level vs control group,[1]; [5],16.8%
same,blood glucose level,[1]; [6],699.00 ± 58.91 mg/dL
same,lowering effect of blood glucose levels compared to the control group,[1]; [6],15.83%
same,blood glucose level,[1]; [7],599.50 ± 52.46 mg/dL
same,lowering effect of blood glucose levels compared to the control group,[1]; [7],22.2%
same,blood glucose level,"[1]; 40 mg/kg for two weeks, fasted for 13 hours",306.30 ± 24.06 mg/dL
same,blood glucose level,[1]; [8],539 ± 23.60 mg/dL
same,lowering effect of blood glucose levels compared to the control group,[1]; [8],38.8%
same,blood glucose level,[1]; [9],297.00 ± 26.51 mg/dL
same,more effective in lowering blood glucose levels than the control group,[1]; [9],32.5%
same,blood glucose level,[1]; [10],277.50 ± 40.89 mg/dL
same,decrease of blood glucose level vs control group,[1]; [10],54.51%
same,blood glucose level,[1]; [11],158.00 ± 28.33 mg/dL
same,decrease of blood glucose level vs control group,[1]; [11],72.11%
same,blood glucose level,[1]; [12],116.00 ± 119.74 mg/dL
same,blood glucose level relative to the control group,[1]; [12],52.07%
same,blood glucose level,[1]; [13],477.50 ± 58.91 mg/dL
same,blood glucose level relative to the control group,[1]; [13],42.50%
same,blood glucose level,[1]; [14],398.00 ± 28.33 mg/dL
same,lowering effect of blood glucose levels compared to the control group,[1]; [14],48.81%
same,blood glucose level,"[1]; 80 mg/kg for two weeks, fasted for 13 hours",301.50 ± 12.2 mg/dL
same,duration of the blood glucose lowering effect,[1]; 40-80 mg/kg for four weeks,about 180 min
same,duration of the blood glucose lowering effect,[1]; 40-80 mg/kg for one week,about 180 minutes
same,duration of the blood glucose lowering effect,[1]; 40-80 mg/kg for two weeks,about 180 min
same,increase of lowering effect of blood glucose levels compared to the control group,"[1]; 40-80 mg/kg for two weeks, fasted for 13 hours",11.5%
same,weight of the mice,[2],no weight difference
same,"densities of the capsule and the β-cells in the capsule, hematoxylin-eosine staining",[3],high
same,positive response to anti-insulin antibody of pancreatic β-islet cells,[3],distinctly increased
same,ED50,[4],15 mg/kg
same,mortality rate,mice,less than 10%
